# Data from patent US5202348A, “Thiarubrine antifungal agents” (The University of British Columbia, priority 1990, dated 1993).
# Like-named read-outs stand apart in the source and are kept apart here.
# Experiments:
# C. albicans [1] = test: Growth inhibition of C. albicans during 24 hours exposure; assay type: cell-based, Candida albicans; details: Candida albicans, 24 hours exposure
# Protocol: (§1) Doses inhibiting growth in 50% were estimated by plotting concentration o
# (§2) a logarithmic scale and percent of growth inhibition for 24 hours exposur
# (§3) on a probability scale.
# [2] = Growth inhibition of P815 mastocytoma during 24 hours exposure; assay type: cell-based, Mouse; details: mouse, p815 cells
# Protocol: (§4) P815 = Mouse mastocytoma […]
# as §2, §3
# P815 = test: as above; assay type: cell-based, Mouse; details: Mus musculus, P815, 24 hours exposure
# Protocol: as §4, §2, §3
# [3] = Growth inhibition of L1210 during 24 hours exposure; assay type: cell-based, Mouse; details: mouse, l1210 cells; Table 2; read-out: Toxicity Index, LC50 L1210 / C. albicans
# Protocol: (§5) L1210 = Mouse lymphocytic leukemia
# as §1, §2, §3
# L1210 = test: as above; assay type: cell-based, Mouse; details: Mus musculus, L1210; 24 hours exposure; Table 1; read-out: Concentration causing 50% growth inhibition
# Protocol: as §5, §1, §2, §3
# [4] = Growth inhibition of WEHI-3 during 24 hours exposure; assay type: cell-based, Mouse; details: mouse, wehi-3 cells; Table 2; read-out: Toxicity Index, LC50 WEHI-3 / LC50 C. albicans
# Protocol: (§6) WEHl3 = Mouse myelomonocyte
# as §1, §2, §3
# WEHI-3 = test: as above; assay type: cell-based, Mouse; details: Mus musculus, WEHI-3; 24 hours exposure; Table 1; read-out: Concentration causing 50% growth inhibition
# Protocol: as §6, §1, §2, §3
# [5] = Growth inhibition of 3T3 during 24 hours exposure; assay type: cell-based, Mouse; details: mouse, 3t3 cells; Table 2; read-out: Toxicity Index, LC50 3T3 / LC50 C. albicans
# Protocol: (§7) 3T3 = Mouse fibroblasts
# as §1, §2, §3
# 3T3 = test: Growth inhibition of 3T3 during 24 hours exposure; assay type: cell-based, Mouse; details: Mus musculus, NIH3T3; 24 hours exposure; Table 1; read-out: Concentration causing 50% growth inhibition
# Protocol: as §7, §1, §2, §3
# E. coli [6] = test: Growth inhibition of E. coli during 24 hours exposure; assay type: cell-based, Escherichia coli; details: Escherichia coli; 24 hours exposure; Table 4; read-out: Minimal concentration causing 50% growth inhibition
# Protocol: as §1, §2, §3
# P. aeruginosa [7] = test: Growth inhibition of P. aeruginosa during 24 hours exposure; assay type: cell-based, Pseudomonas aeruginosa; details: Pseudomonas aeruginosa; 24 hours exposure; Table 4; read-out: Minimal concentration causing 50% growth inhibition
# Protocol: as §1, §2, §3
# Aspergillus fumigatus = test: Sensitivity of Aspergillus fumigatus, agar diffusion method; assay type: cell-based; details: disc diameter 6 mm, read-out: Zone of Growth Inhibition
# Source text: Results were obtained by agar diffusion method. Disc diameter - 6 mm. -* = no zone over disc diameter.
# C. albicans [8] = test: LC50 (24 hrs.), doses required to inhibit growth in 50%, different method; assay type: cell-based, Candida albicans
# Source text: Doses Required to Inhibit Growth of C. albicans
# in 50% During 24 hrs. (ng/ml)
# P815 mastocytoma = test: as above; assay type: cell-based; details: Mus musculus, P815, 24 h, read-out: LC50 (24 hrs.), dose required to inhibit growth in 50%
# C. albicans [9] = test: Degradation of ThD under exposure to bench cool white light (LC50 on C. albicans); assay type: cell-based; details: Candida albicans
# Source text: (§8) Data on degradation of Thiarubrine D (ThD) expressed as changes of concentration required to inhibit growth of C. albicans in 50% during 24 hrs. exposure (Lc50 24 hrs.).
# C. albicans [10] = test: Temperature and time dependent degradation of ThD in water solution (LC50 on C. albicans); assay type: cell-based; details: Candida albicans
# Source text: as §8
# C. albicans [11] = test: Influence of exposure of ThD for two hrs. to different pH (LC50 on C. albicans); assay type: cell-based; details: Candida albicans, two hrs. in sodium phosphate buffer
# Source text: as §8
# C. albicans [12] = test: Changes in LC50 on addition of fetal bovine serum to Saboraud dextrose medium; assay type: cell-based; details: Candida albicans
# Source text: as §8
# C. albicans [13] = test: Doses of ThD required to inhibit different numbers of C. albicans cells; assay type: cell-based; details: Candida albicans, read-out: LC50 (the source's name)
# Candida = test: Anti-Candida activity (summary); assay type: cell-based; details: Table 14;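 note: Letter grades where Y means active and y means less active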
# Aspergillus = test: Anti-Aspergillus activity (summary); assay type: cell-based; details: Table 14;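 note: Letter grades where Y means active and y means less active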
# bacteria = test: Anti-bacterial activity (summary); assay type: cell-based; details: Table 14
# [14] = system: Candida albicans, Aspergillus fumigatus and Cryptococcus neoformans; test: Antifungal activity (general statement); assay type: cell-based; details: extremely low concentrations
# C. albicans [15] = test: Growth inhibition of C. albicans during 24 hours exposure; assay type: cell-based, Candida albicans; details: Candida albicans; 24 hours exposure; Table 3; read-out: Minimal concentration causing 100% growth inhibition
# E. coli [16] = test: Growth inhibition of E. coli during 24 hours exposure; assay type: cell-based, Escherichia coli; details: Escherichia coli; 24 hours exposure; Table 3; read-out: Minimal concentration causing 100% growth inhibition
# P. aeruginosa [17] = test: Growth inhibition of P. aeruginosa during 24 hours exposure; assay type: cell-based, Pseudomonas aeruginosa; details: Pseudomonas aeruginosa, Table 3, read-out: Minimal concentration causing 100% growth inhibition
# [18] = Stability / decomposition of thiarubrines; details: under light
# [19] = Table 1, read-out: Concentration causing 50% growth inhibition
# [20] = Table 4, read-out: Minimal concentration causing 50% growth inhibition
smiles,measurement,setting,value
CC#CC1=CC=C(C#CC#CC2CO2)SS1 (stereo not drawn) [Thiarubrine D],IC50,C. albicans [1]; [19],0.0006 µg/mL
same,IC50,C. albicans [1]; [20],0.0006 µg/mL
same,selectivity ratio at 24 h,"[2]; 50% growth inhibition, Table 4, read-out: Ratio of concentration needed to inhibit growth in 50%, P815 vs C. albicans",200
same,selectivity ratio at 24 h,"[2]; 100% growth inhibition, Table 3, read-out: Ratio of minimal concentration causing 100% growth inhibition, P815 line vs C. albicans",~500
same,selectivity ratio at 24 h,"[2]; Table 2, read-out: Toxicity Index, LC50 P815 / LC50 C. albicans",200
same,IC50,P815; [19],0.12 µg/mL
same,IC100,"P815; Table 3, read-out: Minimal concentration causing 100% growth inhibition",1.25 µg/mL
same,IC50,P815; [20],0.12 µg/mL
same,selectivity ratio at 24 h,[3],78
same,IC50,L1210,0.047 µg/mL
same,selectivity ratio at 24 h,[4],83
same,IC50,WEHI-3,0.05 µg/mL
same,selectivity ratio at 24 h,[5],800
same,IC50,3T3,0.48 µg/mL
same,IC50,E. coli [6],0.02 µg/mL
same,IC50,P. aeruginosa [7],0.21 µg/mL
same,zone of inhibition at 0.01 µg/disc,Aspergillus fumigatus; 10 ng/disc,14 mm
same,zone of inhibition at 0.1 µg/disc,Aspergillus fumigatus; 100 ng/disc,23 mm
same,zone of inhibition at 1 µg/disc,"Aspergillus fumigatus; 1,000 ng/disc",26 mm
same,zone of inhibition at 10 µg/disc,"Aspergillus fumigatus; 10,000 ng/disc",32 mm
same,Inhibition of growth of Candida albicans,C. albicans [8],nanogram/ml range
same,IC50,"C. albicans [8]; Candida albicans, 24 hrs., Table 7, read-out: LC50 (24 hrs.), dose required to inhibit growth in 50%",0.007 µg/mL
same,IC50,P815 mastocytoma,0.085 µg/mL
same,IC50,"C. albicans [9]; 0 mins. exposure to bench cool white light, read-out: LC50 (24 hrs.)",0.007 µg/mL
same,IC50,"C. albicans [9]; 5 mins. exposure to bench cool white light, read-out: LC50 (24 hrs.)",0.012 µg/mL
same,IC50,"C. albicans [9]; 15 mins. exposure to bench cool white light, read-out: LC50 (24 hrs.)",0.026 µg/mL
same,IC50,"C. albicans [9]; 0.5 hrs. exposure to bench cool white light, read-out: LC50 (24 hrs.)",0.14 µg/mL
same,IC50,"C. albicans [9]; 24 h, read-out: LC50 (24 hrs.), 24 hrs. exposure to bench cool white light",5 µg/mL
same,IC50,"C. albicans [9]; read-out: LC50 (24 hrs.), 6 hrs. exposure to bench cool white light",5 µg/mL
same,IC50,"C. albicans [10]; 0 hrs., 37° C., read-out: LC50 24 Hrs.",0.007 µg/mL
same,IC50,"C. albicans [10]; 0 hrs., room temperature, read-out: LC50 24 Hrs.",0.007 µg/mL
same,IC50,"C. albicans [10]; 0.5 hrs., 37° C., read-out: LC50 24 Hrs.",0.02 µg/mL
same,IC50,"C. albicans [10]; 0.5 hrs., room temperature, read-out: LC50 24 Hrs.",0.016 µg/mL
same,IC50,"C. albicans [10]; 2 hrs., 37° C., read-out: LC50 24 Hrs.",0.033 µg/mL
same,IC50,"C. albicans [10]; 2 hrs., room temperature, read-out: LC50 24 Hrs.",0.022 µg/mL
same,IC50,"C. albicans [10]; 6 hrs., 37° C., read-out: LC50 24 Hrs.",0.085 µg/mL
same,IC50,"C. albicans [10]; 6 hrs., room temperature, read-out: LC50 24 Hrs.",0.042 µg/mL
same,IC50,"C. albicans [10]; 24 h, 37° C.",0.21 µg/mL
same,IC50,"C. albicans [10]; 24 h, room temperature",0.11 µg/mL
same,IC50,C. albicans [11]; pH 5,0.04 µg/mL
same,IC50,C. albicans [11]; pH 6,0.034 µg/mL
same,IC50,C. albicans [11]; pH 7,0.02 µg/mL
same,IC50,C. albicans [11]; pH 8,0.052 µg/mL
same,IC50,C. albicans [12]; SAB,0.007 µg/mL
same,IC50,C. albicans [12]; SAB + 5% FBS,0.014 µg/mL
same,IC50,C. albicans [12]; SAB + 10% FBS,0.016 µg/mL
same,IC50,C. albicans [13]; cell density 10^4 /ml,0.007 µg/mL
same,IC50,C. albicans [13]; cell density 10^5 /ml,0.016 µg/mL
same,IC50,C. albicans [13]; cell density 10^6 /ml,0.042 µg/mL
same,Anti-Candida,Candida,Y
same,Anti-Aspergillus,Aspergillus,Y
same,Anti-bacterial,bacteria,Y
same,Antifungal activity,[14],very high antifungal activity
same,MIC,C. albicans [15],0.0024 µg/mL
same,MIC,E. coli [16],0.078 µg/mL
same,MIC,P. aeruginosa [17],0.625 µg/mL
same,Light sensitivity,[18],light sensitive and breaks down under light to the corresponding thiophene
